Values quoted from earlier work in patent publication US7576133B2, “Methods and compositions for nasal administration of modafinil” (priority 2002, dated 2009).

In the case of `NC(=O)C[S+]([O-])C(c1ccccc1)c1ccccc1` (racemic) [Modafinil, 2-[(diphenylmethyl)sulfinyl] acetamide], the “solubility in lower alcohols” value (lower alcohols) is given as “slightly soluble” and the solubility in water (water) is given as “practically insoluble”.
